Values quoted from earlier work, collected in US6710051B1, “Screening method” (Klaus Trier APS, priority 1997, dated 2004).
Read-outs that look alike come from different tables or passages of the source.

Molecular target: T1, skeletal RyR (Oryctolagus cuniculus, UniProt P11716)
T1 construct: Structure-activity Relationship of Xanthines and Skeletal Muscle Ryanodine Receptor/Ca^2+ Release Channel; from tissue; host or cells: Skeletal muscle
Details: cited from earlier work; for Bound [3H]ryanodine % of control / Bound [3H]ryanodine pmol/mg protein / Bound [3H]ryanodine, % of control, +1 mmol/l AMPPCP / Bound [3H]ryanodine, % of control, +3 mmol/l AMP: xanthine […]; for Bound [3H]ryanodine % of control / Bound [3H]ryanodine pmol/mg protein: 1 mmol/l AMPPCP; for Bound [3H]ryanodine pmol/mg protein: means±SD of 3-4 experiments; for effect on the [3H] ryanodine binding compared to the control xanthine: Table 3

[1] = control 1,3-dimethylxanthine = 100
[2] = control 3,7-dimethylxanthine = 100

T1 sequence (P11716 whole entry): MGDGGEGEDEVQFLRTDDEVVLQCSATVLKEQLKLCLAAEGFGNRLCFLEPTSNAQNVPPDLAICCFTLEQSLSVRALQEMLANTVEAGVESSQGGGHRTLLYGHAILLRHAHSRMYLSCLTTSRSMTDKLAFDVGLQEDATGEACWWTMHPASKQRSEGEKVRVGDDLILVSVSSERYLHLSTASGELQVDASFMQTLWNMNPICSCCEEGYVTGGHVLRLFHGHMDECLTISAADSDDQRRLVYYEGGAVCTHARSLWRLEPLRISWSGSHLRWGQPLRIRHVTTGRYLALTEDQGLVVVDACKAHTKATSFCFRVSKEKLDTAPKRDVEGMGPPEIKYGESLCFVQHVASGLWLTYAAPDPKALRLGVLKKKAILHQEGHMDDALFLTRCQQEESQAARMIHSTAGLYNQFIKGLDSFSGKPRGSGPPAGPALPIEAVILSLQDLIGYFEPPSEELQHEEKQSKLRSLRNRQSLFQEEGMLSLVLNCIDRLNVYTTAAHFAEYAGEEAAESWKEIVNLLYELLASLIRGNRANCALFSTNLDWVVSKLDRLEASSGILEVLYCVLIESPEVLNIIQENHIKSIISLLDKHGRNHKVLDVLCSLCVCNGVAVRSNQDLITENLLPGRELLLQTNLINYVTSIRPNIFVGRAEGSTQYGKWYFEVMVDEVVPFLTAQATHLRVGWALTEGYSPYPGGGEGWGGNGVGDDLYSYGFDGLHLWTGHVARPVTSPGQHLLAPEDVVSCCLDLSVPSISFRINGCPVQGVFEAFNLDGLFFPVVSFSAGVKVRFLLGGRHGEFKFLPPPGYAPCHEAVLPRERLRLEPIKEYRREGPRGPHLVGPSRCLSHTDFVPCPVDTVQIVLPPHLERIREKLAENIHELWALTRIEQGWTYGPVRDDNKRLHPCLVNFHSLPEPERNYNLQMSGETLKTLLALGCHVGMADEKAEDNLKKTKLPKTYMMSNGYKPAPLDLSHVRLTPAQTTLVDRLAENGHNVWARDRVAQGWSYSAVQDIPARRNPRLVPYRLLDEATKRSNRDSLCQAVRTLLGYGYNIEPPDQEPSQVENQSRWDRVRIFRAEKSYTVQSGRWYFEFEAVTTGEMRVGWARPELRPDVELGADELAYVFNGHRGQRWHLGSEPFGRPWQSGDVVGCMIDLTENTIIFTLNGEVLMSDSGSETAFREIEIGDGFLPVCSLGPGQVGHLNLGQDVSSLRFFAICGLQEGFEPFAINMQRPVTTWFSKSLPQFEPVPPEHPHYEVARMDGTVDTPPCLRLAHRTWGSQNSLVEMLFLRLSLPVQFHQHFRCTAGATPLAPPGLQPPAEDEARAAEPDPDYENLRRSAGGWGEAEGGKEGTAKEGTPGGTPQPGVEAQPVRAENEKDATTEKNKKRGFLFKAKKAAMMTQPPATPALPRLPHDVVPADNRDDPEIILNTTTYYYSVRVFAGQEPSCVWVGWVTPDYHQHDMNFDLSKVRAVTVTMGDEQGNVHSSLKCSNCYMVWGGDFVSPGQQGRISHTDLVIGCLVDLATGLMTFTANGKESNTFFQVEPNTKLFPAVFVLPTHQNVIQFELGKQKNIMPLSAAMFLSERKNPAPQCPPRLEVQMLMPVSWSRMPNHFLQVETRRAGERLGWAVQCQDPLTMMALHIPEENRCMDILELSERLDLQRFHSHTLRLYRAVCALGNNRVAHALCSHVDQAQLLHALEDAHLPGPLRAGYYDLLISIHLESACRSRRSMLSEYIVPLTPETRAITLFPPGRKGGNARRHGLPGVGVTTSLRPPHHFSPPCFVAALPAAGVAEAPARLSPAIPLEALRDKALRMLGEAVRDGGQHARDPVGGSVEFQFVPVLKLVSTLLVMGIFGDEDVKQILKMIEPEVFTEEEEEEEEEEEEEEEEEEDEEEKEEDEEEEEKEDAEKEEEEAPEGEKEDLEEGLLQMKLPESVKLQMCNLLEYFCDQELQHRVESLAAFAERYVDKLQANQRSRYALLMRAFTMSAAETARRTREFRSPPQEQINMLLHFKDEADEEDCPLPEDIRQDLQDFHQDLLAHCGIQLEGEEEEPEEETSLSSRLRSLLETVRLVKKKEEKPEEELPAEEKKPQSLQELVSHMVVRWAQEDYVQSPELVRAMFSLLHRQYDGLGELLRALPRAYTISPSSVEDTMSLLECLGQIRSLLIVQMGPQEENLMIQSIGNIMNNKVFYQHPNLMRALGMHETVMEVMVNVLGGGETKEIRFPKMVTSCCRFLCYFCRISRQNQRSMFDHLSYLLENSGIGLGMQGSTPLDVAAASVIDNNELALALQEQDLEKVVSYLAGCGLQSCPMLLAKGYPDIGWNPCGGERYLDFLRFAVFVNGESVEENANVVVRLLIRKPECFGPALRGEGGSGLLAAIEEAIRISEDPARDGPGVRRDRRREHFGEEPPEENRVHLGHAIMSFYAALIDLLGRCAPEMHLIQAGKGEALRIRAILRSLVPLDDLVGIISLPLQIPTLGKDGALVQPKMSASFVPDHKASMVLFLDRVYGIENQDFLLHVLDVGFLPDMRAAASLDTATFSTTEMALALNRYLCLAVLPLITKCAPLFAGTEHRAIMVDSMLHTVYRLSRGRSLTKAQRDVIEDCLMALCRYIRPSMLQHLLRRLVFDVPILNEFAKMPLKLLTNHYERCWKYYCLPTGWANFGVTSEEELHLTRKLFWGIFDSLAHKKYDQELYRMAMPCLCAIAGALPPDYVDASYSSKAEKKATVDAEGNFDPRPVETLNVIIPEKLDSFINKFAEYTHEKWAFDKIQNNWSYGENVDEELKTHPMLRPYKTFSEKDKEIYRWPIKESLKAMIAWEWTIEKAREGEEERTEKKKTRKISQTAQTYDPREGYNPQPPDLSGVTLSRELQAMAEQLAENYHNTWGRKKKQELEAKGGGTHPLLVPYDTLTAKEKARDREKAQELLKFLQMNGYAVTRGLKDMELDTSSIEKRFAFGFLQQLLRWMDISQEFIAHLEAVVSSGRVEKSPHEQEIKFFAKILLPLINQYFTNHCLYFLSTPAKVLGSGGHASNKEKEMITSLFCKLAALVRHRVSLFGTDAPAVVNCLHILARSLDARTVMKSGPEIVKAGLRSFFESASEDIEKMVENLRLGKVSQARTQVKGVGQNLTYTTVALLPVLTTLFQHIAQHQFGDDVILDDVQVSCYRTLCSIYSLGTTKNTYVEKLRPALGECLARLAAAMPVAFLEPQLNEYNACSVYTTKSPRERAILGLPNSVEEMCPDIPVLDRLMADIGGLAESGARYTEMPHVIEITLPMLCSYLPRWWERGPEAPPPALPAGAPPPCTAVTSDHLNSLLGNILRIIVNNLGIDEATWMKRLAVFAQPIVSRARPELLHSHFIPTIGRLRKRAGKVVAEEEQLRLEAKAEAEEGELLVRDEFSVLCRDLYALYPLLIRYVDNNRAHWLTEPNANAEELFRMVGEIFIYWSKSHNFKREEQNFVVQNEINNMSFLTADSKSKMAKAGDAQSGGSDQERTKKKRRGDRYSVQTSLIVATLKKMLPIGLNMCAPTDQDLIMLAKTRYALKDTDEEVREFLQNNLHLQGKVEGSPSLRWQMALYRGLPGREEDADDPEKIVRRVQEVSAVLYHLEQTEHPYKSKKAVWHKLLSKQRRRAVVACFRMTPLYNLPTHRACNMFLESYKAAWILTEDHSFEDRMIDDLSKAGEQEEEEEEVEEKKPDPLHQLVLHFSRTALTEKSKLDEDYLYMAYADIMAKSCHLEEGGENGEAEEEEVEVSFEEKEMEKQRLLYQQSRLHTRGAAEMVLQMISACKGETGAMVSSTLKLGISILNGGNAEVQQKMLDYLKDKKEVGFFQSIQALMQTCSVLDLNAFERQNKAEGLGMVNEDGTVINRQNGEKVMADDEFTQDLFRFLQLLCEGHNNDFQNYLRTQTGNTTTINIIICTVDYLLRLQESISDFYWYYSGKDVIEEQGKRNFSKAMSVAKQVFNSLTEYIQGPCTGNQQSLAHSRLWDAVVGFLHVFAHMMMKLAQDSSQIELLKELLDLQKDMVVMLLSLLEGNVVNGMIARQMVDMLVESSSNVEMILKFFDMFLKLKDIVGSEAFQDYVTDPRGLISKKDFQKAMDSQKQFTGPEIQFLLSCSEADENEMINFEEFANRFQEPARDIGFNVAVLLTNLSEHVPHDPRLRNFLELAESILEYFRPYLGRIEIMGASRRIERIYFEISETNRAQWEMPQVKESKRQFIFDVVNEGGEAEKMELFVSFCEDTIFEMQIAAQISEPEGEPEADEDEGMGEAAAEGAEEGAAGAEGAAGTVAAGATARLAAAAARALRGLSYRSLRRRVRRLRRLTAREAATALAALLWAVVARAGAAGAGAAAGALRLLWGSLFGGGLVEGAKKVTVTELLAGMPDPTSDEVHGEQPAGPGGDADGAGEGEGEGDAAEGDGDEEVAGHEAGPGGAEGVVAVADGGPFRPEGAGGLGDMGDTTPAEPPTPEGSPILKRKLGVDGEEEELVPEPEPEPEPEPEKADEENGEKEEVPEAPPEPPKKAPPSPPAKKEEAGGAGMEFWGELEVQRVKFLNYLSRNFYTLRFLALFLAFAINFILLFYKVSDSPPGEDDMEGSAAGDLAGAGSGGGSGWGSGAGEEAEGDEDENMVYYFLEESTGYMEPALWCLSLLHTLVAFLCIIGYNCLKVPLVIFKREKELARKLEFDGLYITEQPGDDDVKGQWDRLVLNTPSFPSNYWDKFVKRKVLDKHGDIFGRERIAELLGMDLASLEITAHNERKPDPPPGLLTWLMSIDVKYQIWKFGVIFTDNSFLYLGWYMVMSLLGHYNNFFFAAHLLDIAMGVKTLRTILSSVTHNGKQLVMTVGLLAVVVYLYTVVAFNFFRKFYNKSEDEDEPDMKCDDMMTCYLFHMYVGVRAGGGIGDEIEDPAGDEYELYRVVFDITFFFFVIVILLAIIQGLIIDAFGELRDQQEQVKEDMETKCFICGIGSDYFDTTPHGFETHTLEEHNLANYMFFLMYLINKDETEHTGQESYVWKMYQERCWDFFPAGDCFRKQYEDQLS

SMILES | Bound [3H]ryanodine % of control [1] | Bound [3H]ryanodine pmol/mg protein [pmol/mg protein] | Bound [3H]ryanodine, % of control, +1 mmol/l AMPPCP (control (-xanthine) = 100) | Bound [3H]ryanodine, % of control, +3 mmol/l AMP (control (-xanthine) = 100) | Bound [3H]ryanodine % of control (control (-xanthine) = 100) | effect on the [3H] ryanodine binding compared to the control xanthine | Bound [3H]ryanodine % of control [2]
Cn1c(=O)c2[nH]c(-c3ccccc3)nc2n(C)c1=O [8-Phenyl-1,3-dimethylxanthine] | 58 ± 9 % of control | 1.67 ± 0.31 | 99 ± 18 % of control | 103 ± 14 % of control | – | – | –
Cn1c(=O)[nH]c2ncn(C)c2c1=O [1,7-Dimethylxanthine] | – | 6.08 ± 0.47 | 360 ± 28 % of control | 378 ± 34 % of control | 360 ± 28 % of control | – | –
Cn1c(=O)c2[nH]c(Cl)nc2n(C)c1=O [8-Chloro-1,3-dimethylxanthine] | 68 ± 4 % of control | 1.96 ± 0.13 | 116 ± 17 % of control | 108 ± 14 % of control | – | – | –
Cn1cnc2c(=O)[nH]c(=O)n(C)c21 [3,9-Dimethylxanthine] | – | 2.42 ± 0.34 | 143 ± 20 % of control | 141 ± 11 % of control | 143 ± 20 % of control | – | –
CCCn1cnc2[nH]c(=O)[nH]c(=O)c21 [7-Propylxanthine] | – | 4.57 ± 0.20 | 270 ± 12 % of control | 234 ± 14 % of control | 270 ± 12 % of control | – | –
CN1CN(C)c2c1[nH]c(=O)[nH]c2=O [7,9-Dimethylxanthine] | – | 1.73 ± 0.22 | 102 ± 13 % of control | 100 ± 15 % of control | 102 ± 13 % of control | – | –
CC(C)Cn1c(=O)n(C)c(=O)c2[nH]cnc21 [3-Isobutyl-1-methylxanthine] | – | 2.96 ± 0.33 | 175 ± 20 % of control | 139 ± 11 % of control | 175 ± 20 % of control | – | –
Cn1c(=O)c2[nH]c(-c3ccc(S(=O)(=O)O)cc3)nc2n(C)c1=O [8-(p-Sulfophenyl)-1,3-dimethylxanthine] | 54 ± 6 % of control | 1.55 ± 0.28 | 92 ± 17 % of control | 91 ± 16 % of control | – | – | –
Cn1c(=O)c2[nH]c(CCC(=O)O)nc2n(C)c1=O [8-Propionic acid 1,3-dimethylxanthine] | 60 ± 3 % of control | 1.73 ± 0.09 | 102 ± 5 % of control | 100 ± 11 % of control | – | – | –
Cn1c(=O)c2c(ncn2CCCl)n(C)c1=O [7β-Chloroethyl-1,3-dimethylxanthine] | 135 ± 6 % of control | 3.88 ± 0.16 | 230 ± 9 % of control | 256 ± 34 % of control | – | – | –
Cn1c(=O)c2ncn(C)c2n(C)c1=O [1,3,9-Trimethylxanthine] | – | 1.77 ± 0.12 | 105 ± 7 % of control | 103 ± 15 % of control | – | – | –
Cn1c(=O)[nH]c2nc[nH]c2c1=O [1-Methylxanthine] | – | 3.02 ± 0.38 | 179 ± 22 % of control | 167 ± 16 % of control | 179 ± 22 % of control | – | –
Cn1c(=O)c2c(ncn2CCO)n(C)c1=O [7β-Hydroxyethyl-1,3-dimethylxanthine] | 73 ± 4 % of control | 2.10 ± 0.26 | 124 ± 15 % of control | 134 ± 15 % of control | – | – | –
Cn1c(=O)[nH]c2c(ncn2C)c1=O [1,9-Dimethylxanthine] | – | 1.42 ± 0.23 | 84 ± 14 % of control | 86 ± 18 % of control | 84 ± 14 % of control | less than 110% | –
CC(=O)CCCCn1c(=O)c2c(ncn2C)n(C)c1=O [1-(5-Oxohexyl)-3,7-dimethylxanthine] | – | 3.18 ± 0.08 | 188 ± 5 % of control | 185 ± 25 % of control | – | – | 118 ± 3 % of control
C#CCn1c(=O)c2c(ncn2C)n(C)c1=O [3,7-Dimethyl-1-propargylxanthine] | – | 3.88 ± 0.10 | 230 ± 6 % of control | 201 ± 33 % of control | – | – | 144 ± 3 % of control
Cc1nc2[nH]c(=O)[nH]c(=O)c2[nH]1 [8-Methylxanthine] | – | 1.61 ± 0.33 | 95 ± 20 % of control | 90 ± 11 % of control | 95 ± 20 % of control | – | –
Cn1c(=O)c2[nH]c(C3CCCC3)nc2n(C)c1=O [8-Cyclopentyl-1,3-dimethylxanthine] | 78 ± 8 % of control | 2.25 ± 0.28 | 133 ± 6 % of control | 142 ± 14 % of control | – | – | –
Cn1c(=O)[nH]c(=O)c2[nH]cnc21 [3-Methylxanthine] | – | 2.26 ± 0.15 | 134 ± 9 % of control | 137 ± 10 % of control | 134 ± 9 % of control | – | –
Cn1c(=O)c2c(ncn2CC(O)CO)n(C)c1=O (stereo not drawn) [7-(2,3-Dihydroxypropyl)-1,3-dimethylxanthine] | 69 ± 6 % of control | 1.97 ± 0.16 | 117 ± 9 % of control | 123 ± 16 % of control | – | – | –
CCCn1cnc2c(=O)[nH]c(=O)[nH]c21 [9-Propylxanthine] | – | 1.62 ± 0.20 | 96 ± 12 % of control | 97 ± 23 % of control | 96 ± 12 % of control | – | –
CCCn1c(=O)[nH]c(=O)c2[nH]cnc21 [3-Propylxanthine] | – | 3.82 ± 0.23 | 226 ± 14 % of control | 203 ± 14 % of control | 226 ± 14 % of control | – | –
CCCCCCn1c(=O)c2c(ncn2C)n(C)c1=O [1-Hexyl-3,7-dimethylxanthine] | – | 6.99 ± 0.80 | 414 ± 47 % of control | 449 ± 28 % of control | – | more than 200% | 259 ± 24 % of control
CCCn1c(=O)c2c(ncn2C)n(CCC)c1=O [1,3-Dipropyl-7-methylxanthine] | – | 4.96 ± 0.39 | 295 ± 23 % of control | 326 ± 30 % of control | – | – | –
